Measured values as given in patent US20020111314A1, “Novel stimulation of gene expression and protein synthesis of heat shock protein 72/73 (Hsp 70)” (The Trustees of Columbia University, priority 1995, published 2002).
Square brackets hold non-standard residues; d marks the D form. Peptide text beside a SMILES is read from it. Nle = CCCC[C@H](N)C(=O)O

Test system: HepG2 cells
Assay: Total incorporation of radiolabel (TCA cpm) as indicator of cell toxicity in HepG2 cells
Assay type: cell-based, human
Conditions: ALLN 10 μg/ml
Procedure: FIGS. 3A-3B: Effects of the other protease inhibitors on Hsp70 biosynthesis in HepG2 cells. HepG2 cells were preincubated in serum-free MEM containing either 1.5% BSA alone (Control), or BSA plus 40 μg/ml of ALLN, 40 μg/ml of ALLM, 50 μg/ml of leupeptin, 50 μg/ml of pepstatin A, 25 μg/ml of E-64d, 1 mM of phenylmethylsulfonyl fluoride (PMSF), 100 KIU/ml of apotinin, 1 mM of Benzamidine (Benz), 200 μM of calpain inhibitor peptide (CIP). Radiolabeling (in the presence of protease inhibitors), lysis and immunoprecipitation were performed as described in FIG. 1. The Hsp70 specific radioactivity (A) and the amount of total incorporated radioactivity (TCA-cpm) (B) were compared with each other. All the values were presented as the mean±SD from three individual culture dishes.
Preincubation and labeling media each contained either 1.5% bovine serum albumin (BSA) alone, or BSA plus ALLN (40 μg/ml except as otherwise indicated), or BSA plus other protease inhibitors at concentrations indicated in the figure legends. At the indicated times, cells were removed from the 37° C. incubator and placed on ice, washed with cold phosphate-buffer saline (PBS) twice and lysed with lysis buffer containing 1% Triton X-100 (TX100), 1% deoxycholic acid (DOC) and 0.1% SDS in PBS containing proteinase inhibitors: 2 mM phenylmethylsulfonyl fluoride (PMSF); 2 μg/ml ALLN; 2 μg/ml leupeptin; and 2 μg/ml aprotinin. After a 30 min. incubation with lysis buffer at 4° C., the lysates were centrifuged at 14,000 g in a microcentrifuge for 5 min., and the supernatants were adjusted to 1% SDS concentration and boiled for 5 min. to denature the proteins. 1% TX100 was then added to dilute the lysates to a final concentration of 0.1% SDS. Cell lysates containing equal amounts of trichloroacetic acid (TCA)-insoluble radioactivity were used for immunoprecipitations by incubating with individual monoclonal antibody (1 μg/ml) for 2.5 hours at 4° C. Protein-A Sepharose 4B was added afterwards and the lysates incubated for another 1.5 hours at 4° C. to collect the immunocomplexes. […]

CCCC[C@@H](C=O)NC(=O)[C@H](CC(C)C)NC(=O)[C@H](CC(C)C)NC(C)=O [ALLN, N-acetyl-leucyl-leucyl-norleucinal] (Ac-Leu-Leu-[Nle]-aldehyde)
cell total incorporation of radiolabel (TCA cpm, indicator of cell toxicity): did not change significantly
